Measurements published in patent US20260256670A1, “COMPOSITION CONTAINING PEPTIDES HAVING SKIN-LIGHTENING EFFECT” (REMEDI CO., LTD., priority 2022, published 2026).
Ends that are not written are not given here.

System: HaCaT cells
Assay: Cytotoxicity evaluation (CCK8 assay)
Assay type: cell-based
Details: serum-free medium, 24 hours
Description: HaCaT cells and B16F10 cells were cultured in a cell culture medium supplemented with 10% of fetal bovine serum (FBS) and antibiotic solution (100 units/ml penicillin, 100 μg/ml of streptomycin) in DMEM medium. The cells were cultured under conditions maintained at 37° C., 95% humidity, and 5% CO2, and when the cells were 70-80% adhered to the culture dish, they were treated with trypsin-EDTA and subcultured. HaCaT cells were distributed and cultured from Professor Tae-Yoon Kim of the College of Medicine, The Catholic University of Korea, and B16F10 cells were distributed and cultured from the Korean Cell Line Bank.
To evaluate the toxicity of RMNE1 in HaCaT skin cells, 3×10^4 of HaCaT cells were attached to a 96-well plate 12 hours ago. Thereafter, the cells were washed using serum-free DMEM medium and then treated with RMNE1 peptide at different concentrations in the serum-free medium. After 24 hours, the cells were washed a total of three times with serum-free medium, and then cell activity was measured using the CCK8 assay.

## DEQERRRRRGRTRVRSE [RMNE1, DEQERRRRRGRTRVRSE]
  cytotoxicity: low cytotoxicity
